# In the supplement of paper PMC6206229:
# Columns and labels:
# [1] = system: Staphylococcus aureus ATCC 29213 (MSSA); assay: minimum inhibitory concentration; extreme values may be limits of the assay
# Summary of the method: (§1)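 Broth microdilution in 96-well plates, following CLSI guidance with a resazurin redox read-out, was used to test methicillin-susceptible and methicillin-resistant Staphylococcus aureus. Compounds ranging from 0 to 100 µM were incubated with the bacteria at 37°C for 24 h, after which 30 µl of 0.015% resazurin was added for 2–4 h, and every plate carried positive controls. The minimum inhibitory concentration was taken as the lowest concentration at which wells stayed blue instead of turning pink, and runs were performed at least twice in triplicate.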
# [2] = system: Staphylococcus aureus ATCC 700699 (MRSA); assay: as above
# Summary of the method: as §1
Structure (SMILES),minimum inhibitory concentration [1],minimum inhibitory concentration [2]
CC(Oc1ccccc1)C(=O)Nc1nc(-c2ccccn2)cs1 (centres undefined),50 µM,50 µM
CCOC(=O)c1c(NC(=O)c2c(F)c(F)c(F)c(F)c2F)sc(C(N)=O)c1C,> 50 µM,> 50 µM
CO[C@H]1/C=C\O[C@@]2(C)Oc3c(C)c(O)c4c(O)c(/c(=C/NN5CCN(C)CC5)c(O)c4c3C2=O)=N\C(=O)/C(C)=C\C=C/[C@H](C)[C@H](O)[C@@H](C)[C@@H](O)[C@@H](C)[C@H](OC(C)=O)[C@@H]1C,0.09 µM,50 µM
CC(C)(C)c1cnc(NC(=O)c2ccccc2O)s1,> 50 µM,> 50 µM
NCCC(O)C(=O)N[C@@H]1C[C@H](N)[C@@H](OC2O[C@H](CN)[C@@H](O)[C@H](O)[C@H]2O)[C@H](O)C1OC1O[C@H](CO)[C@@H](O)[C@H](N)[C@H]1O (some centres undefined),> 50 µM,> 50 µM
O=[N+]([O-])c1cn2c(n1)OC[C@@H](OCc1ccc(OC(F)(F)F)cc1)C2,> 50 µM,> 50 µM
O=C(Nc1c(O)cccc1-c1nc2c(C(=O)O)cccc2o1)c1cc(-c2ccccc2)on1,> 50 µM,> 50 µM
CNC(=O)c1cc(S(=O)(=O)N2CCN(c3ccccn3)CC2)cs1,> 50 µM,> 50 µM
Cc1ccc2nc(Cl)c(CNCc3cccs3)cc2c1,> 50 µM,> 50 µM
c1ccc(Oc2ccc(-c3cc(N4CCNCC4)[nH]n3)cc2)cc1,> 50 µM,> 50 µM
CN(C)c1cc(NC(=O)Nc2ccccc2)c2ccccc2n1,> 50 µM,> 50 µM
CCc1ccc(S(=O)(=O)Nc2cc(CN3CCN(CCC(C)C)CC3)ccc2C)cc1,> 50 µM,> 50 µM
Brc1cncc(-c2cc(NCCCn3ccnc3)nc(-c3ccccc3)n2)c1,> 50 µM,> 50 µM
COc1ccc(CCN2CCC(NCc3cccc(N(C)C)c3)CC2)cc1,> 50 µM,> 50 µM
Nc1nccc2ccc(Oc3ccncc3)cc12,50 µM,50 µM
Cc1nc(-c2cccc(NCc3ccccc3)c2)[nH]c1C,50 µM,50 µM
COc1cccc(-c2nc3c(N4CCCC4)cccc3n2CC2CCCN2)n1 (centres undefined),25 µM,50 µM
C[C@H](c1ccc2c(c1)CCCC2)N(C)c1ncc2c(N)nc(N)nc2n1,50 µM,50 µM
c1coc(CNc2nc(N3CCCCC3)nc3ccccc23)c1,> 50 µM,> 50 µM
CC(C)C(C(=O)Nc1ccc(S(=O)(=O)N(C)C)cc1)c1ccc(Cl)cc1 (centres undefined),> 50 µM,> 50 µM
Cc1cc(NC(=O)c2ccc(Oc3ccc(Cl)cc3O)o2)no1,> 50 µM,50 µM
CC(=O)NCC1CN(c2ccc(-c3ccc(CNCc4cn[nH]n4)cc3)c(F)c2)C(=O)O1 (centres undefined),6.25 µM,6.25 µM
CCc1nc2ccc(C(=O)NCc3ccc4c(c3)OCO4)cn2c1N(C)Cc1cccs1,> 50 µM,> 50 µM
O=C(NC1CC1)c1ccc(CSCc2ccccc2Cl)o1,> 50 µM,> 50 µM
COc1ccc(Cn2cnc3c(-c4ccco4)nc(Cl)nc32)cc1,> 50 µM,> 50 µM
O=C(NC1=NCCS1)c1sc2cc(F)ccc2c1Cl,> 50 µM,> 50 µM

Structure (SMILES),minimum inhibitory concentration [1],minimum inhibitory concentration [2]
CC(C)(C)c1ccc(N[C@@H]2CCCC[C@H]2NC(=O)c2ccco2)cc1,> 50 µM,> 50 µM
Cc1nn(C(=O)Nc2cccc(C(F)(F)F)c2)c(C)c1Sc1ncccn1,> 50 µM,> 50 µM
O=C(Nc1cccc(Cl)c1)c1cnc(N2CCN(c3ccncc3)CC2)c(Cl)c1,> 50 µM,> 50 µM
c1ccc(C[C@@H]2CN(c3nccc(Oc4ccc(-n5ccnc5)cc4)n3)CCN2)cc1,> 50 µM,> 50 µM
CN1CCC(NCc2cccc(-c3ccc(S(=O)(=O)NCc4ccccc4)cc3)c2)CC1,> 50 µM,> 50 µM
CNC(=O)CNc1nc(-c2ccccn2)nc2scc(-c3ccccc3)c12,> 50 µM,> 50 µM
Nc1ccc(C(=O)Nc2ccc(-c3nc4ccccc4o3)cc2)cc1,> 50 µM,> 50 µM
C[C@H](C(N)=O)N1CCCC[C@@H]1c1ccc(OCc2cccc(F)c2)cc1,> 50 µM,> 50 µM
CNCCC(Oc1ccc(C(F)(F)F)cc1)c1ccccc1 (centres undefined),> 50 µM,> 50 µM
Cc1cc(C)n2nc(C(=O)Nc3cc(C(F)(F)F)ccc3N3CCOCC3)nc2n1,> 50 µM,> 50 µM
COc1ccc(-c2nnc3ccc(-c4cccc(C(C)C)c4)cn23)cc1OC,> 50 µM,> 50 µM
CCOc1ccccc1C(=O)Nc1cccc(-c2nc3ncccn3c2C)c1,> 50 µM,> 50 µM
O=C(NCCc1ccccc1)c1cc(-c2cccnc2)cnc1NCC1CC1,> 50 µM,> 50 µM
CCOc1ccc(-c2nc(NC(=O)CS(=O)(=O)c3ccccc3)sc2C)cc1,> 50 µM,> 50 µM
CC(C)c1ncc(-c2ccncc2)c([C@H]2CC[C@H](CNC(=O)c3cccnc3)CC2)n1,> 50 µM,> 50 µM
FC(F)(F)c1nnc2ccc(Cl)nn12,> 50 µM,> 50 µM
COc1nc2ccc(Br)cc2cc1[C@@H](c1ccccc1)[C@@](O)(CCN(C)C)c1cccc2ccccc12,> 50 µM,> 50 µM
Clc1ccc(CN2CCN(C3=NCCN3)CC2)cc1Cl,> 50 µM,> 50 µM
O=C(COc1cccc(F)c1)Nc1nc(-c2ccccn2)cs1,> 50 µM,> 50 µM
CO[C@@H](C(=O)N1Cc2[nH]nc(NC(=O)c3ccc(N4CCN(C)CC4)cc3)c2C1)c1ccccc1,> 50 µM,> 50 µM
COc1cccc(NC(=O)c2c(NC(=O)c3cccnc3)sc3c2CCC3)c1,> 50 µM,> 50 µM
COc1cccc(-n2nnnc2S(=O)(=O)Cc2ccccc2)c1,50 µM,50 µM
N#Cc1nc(-c2ccccc2)oc1S(=O)(=O)c1ccc(Cl)cc1,> 50 µM,> 50 µM
Cc1ccc2oc(-c3cc(NC(=O)Cc4ccccc4)ccc3Cl)nc2c1,> 50 µM,> 50 µM
COc1ccccc1CNC(=O)c1cc(C2CC2)nc2c1cnn2C(C)C,> 50 µM,> 50 µM
O=C1N(Cc2cc3ccccc3s2)CC2CN(Cc3ccccc3)CCN12 (centres undefined),> 50 µM,> 50 µM
